One block for each compound: values may come before it.
Assays:
NCI-H1373 cells = experiment: Inhibitory effect on the proliferation of NCI-H1373 cells (CellTiter-Glo); format: cell-based; details: Homo sapiens, 144 h, 6 days treatment
From the text: 1. Experimental Principle: NCI-H1373 cells are a type of lung adenocarcinoma cells that overexpress PARP7.
2. Experimental Materials: NCI-H1373 cells were obtained from Nanjing Cobioer Biosciences Co., Ltd. CellTiter-Glo® (cell viability chemiluminescent assay reagent) was purchased from Promega (Catalog No. G7571). RPMI-1640 medium was obtained from ATCC (Catalog No. 30-2001). RPMI-1640 medium, penicillin/streptomycin antibiotics were purchased from WISENT. Fetal bovine serum was obtained from Biosera. The Nivo multimode reader was procured from PerkinElmer.
3. Experimental Method: NCI-H1373 cells were seeded in a white 96-well plate with 80 μL of cell suspension per well, containing 3000 NCI-H1373 cells. The cell plate was incubated overnight in a carbon dioxide (CO2) incubator.
The test compounds were serially diluted 5-fold to the 9th concentration, ranging from 2 mmol/L to 5.12 nmol/L, for a duplicate assay. 78 μL of culture medium was added to the intermediate plate, and then, according to the corresponding positions, 2 μL of each gradient-diluted compound was transferred to the intermediate plate. After thorough mixing, 20 μL of the compound solution was transferred to the cell plate. The compound concentration range in the cell plate ranged from 10 μmol/L to 0.0256 nmol/L. The cell plate was incubated in a CO2 incubator for 6 days.
Another cell plate was prepared, and the signal values were read on the day of dosing to obtain the maximum value referred to as Max in the following equation for data analysis. 25 μL of cell viability chemiluminescent assay reagent was added to each well of this cell plate, and it was incubated at room temperature for 10 minutes to stabilize the luminescent signal. Readings were taken using a multimode reader.
After 6 days of treatment, 25 μL of cell viability chemiluminescent assay reagent was added to each well of the cell plate, and it was incubated at room temperature for 10 minutes to stabilize the luminescent signal. Readings were taken using a multimode reader.
The IC50 value was determined by four-parameter curve fitting (obtained by using the “log(inhibitor) vs. response—Variable slope” model in GraphPad Prism).

PARP1 = PARP1 (Homo sapiens (Human), UniProt P09874)
PARP1, sequence (P09874 whole entry): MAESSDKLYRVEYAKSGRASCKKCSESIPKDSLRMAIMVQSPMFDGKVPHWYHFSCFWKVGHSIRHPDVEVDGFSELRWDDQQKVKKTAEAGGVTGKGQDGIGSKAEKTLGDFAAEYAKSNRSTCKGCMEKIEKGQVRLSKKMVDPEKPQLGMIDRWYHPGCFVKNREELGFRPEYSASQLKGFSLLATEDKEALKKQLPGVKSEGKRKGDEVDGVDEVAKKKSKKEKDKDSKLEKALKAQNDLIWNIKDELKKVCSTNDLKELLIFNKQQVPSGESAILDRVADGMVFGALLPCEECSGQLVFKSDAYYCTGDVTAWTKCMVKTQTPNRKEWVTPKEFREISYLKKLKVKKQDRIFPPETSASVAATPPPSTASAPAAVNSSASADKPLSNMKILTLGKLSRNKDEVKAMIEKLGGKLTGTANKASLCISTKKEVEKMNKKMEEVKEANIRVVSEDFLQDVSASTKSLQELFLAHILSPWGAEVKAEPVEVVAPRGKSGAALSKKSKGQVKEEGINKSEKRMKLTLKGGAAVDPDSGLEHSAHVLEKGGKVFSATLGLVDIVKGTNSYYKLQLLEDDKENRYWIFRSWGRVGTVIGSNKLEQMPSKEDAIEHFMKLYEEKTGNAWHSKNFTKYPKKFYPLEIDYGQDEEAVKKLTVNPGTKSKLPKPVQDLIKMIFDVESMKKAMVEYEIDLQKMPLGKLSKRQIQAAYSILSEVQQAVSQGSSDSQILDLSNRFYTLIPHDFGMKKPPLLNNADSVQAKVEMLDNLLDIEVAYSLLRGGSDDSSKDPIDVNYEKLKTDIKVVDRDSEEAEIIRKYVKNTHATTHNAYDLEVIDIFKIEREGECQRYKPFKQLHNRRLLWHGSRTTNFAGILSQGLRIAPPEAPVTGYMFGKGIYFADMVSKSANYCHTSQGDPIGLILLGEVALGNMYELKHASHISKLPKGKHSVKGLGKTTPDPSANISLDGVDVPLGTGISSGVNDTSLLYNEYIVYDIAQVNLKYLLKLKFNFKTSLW
Description: (§5) Experimental Principle: The inhibitory effect of the test substance on the enzymatic activity of PARP1/7 is assessed by using an Enzyme-Linked Immunosorbent Assay (ELISA).
(§6) (1) Pre-coating: Add 100 μL of a PBS buffer (10 mM NaH2PO4, 10 mM Na2HPO4, 150 mM NaCl, pH 7.4) containing 20 g/mL of histone to each well of a 96-well plate, and incubate at 4° C. overnight.
(§7) (3) Add 5 μL of the test substance or solvent to each well.
(§8) (4) Add 20 μL of(PARP1 or PARP7 (50 ng/well), and incubate at 30° C. for 1 hour.
(§9) (5) Add 50 μL of streptavidin-HRP to the reaction mixture, and incubate at 30° C. for 30 minutes.
(§10) (6) Finally, add 100 μL of a citrate buffer containing H2O2 and luminol (0.1 M, pH 5.4), and measure the luminescent signal using a microplate reader (Molecular Devices SpectraMax M5).
(§11) (7) Calculate the inhibition rate of PARP1 or PARP7 enzyme activity as [(control group−treatment group)/control group]×10000. Fit the dose-response data with standard dilutions using Prism GraphPad software and calculate the concentration required to achieve 5000 inhibition of PARP1 or PARP7 enzyme activity (IC50).

PARP7 = PARP7 (Homo sapiens (Human), UniProt Q7Z3E1)
PARP7, sequence (Q7Z3E1 whole entry): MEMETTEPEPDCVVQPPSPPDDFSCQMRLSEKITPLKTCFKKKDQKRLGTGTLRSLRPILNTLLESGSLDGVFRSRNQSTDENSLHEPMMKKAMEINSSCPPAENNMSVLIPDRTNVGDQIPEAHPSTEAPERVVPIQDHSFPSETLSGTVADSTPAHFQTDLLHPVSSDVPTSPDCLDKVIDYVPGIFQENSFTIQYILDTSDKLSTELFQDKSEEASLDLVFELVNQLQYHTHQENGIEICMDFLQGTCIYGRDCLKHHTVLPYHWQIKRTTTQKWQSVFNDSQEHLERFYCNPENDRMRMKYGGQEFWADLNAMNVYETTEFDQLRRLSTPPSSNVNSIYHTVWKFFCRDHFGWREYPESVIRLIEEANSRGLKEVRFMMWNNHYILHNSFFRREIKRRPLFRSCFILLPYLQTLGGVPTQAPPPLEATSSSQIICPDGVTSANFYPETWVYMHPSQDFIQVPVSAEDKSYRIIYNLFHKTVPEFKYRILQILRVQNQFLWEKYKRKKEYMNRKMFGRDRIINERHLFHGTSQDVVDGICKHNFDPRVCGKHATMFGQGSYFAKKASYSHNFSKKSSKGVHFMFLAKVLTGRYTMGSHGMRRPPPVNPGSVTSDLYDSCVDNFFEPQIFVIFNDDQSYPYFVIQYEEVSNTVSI
Description: as §5, §6, §7, §8, §9, §10, §11

[1] = Pharmacokinetic properties in SD rats after single intravenous injection and oral administration; format: in vivo; details: SD male rats; for F: oral bioavailability; for AUC(0-inf) / Cmax / clearance / half-life: rat, plasma
From the text: 1. Test purpose: to determine the pharmacokinetic characteristics of some of the example compound of the present invention in SD rats after single intravenous injection(IV) and oral administration(PO) by LC-MS/MS method.
2. Test material: the test drug is self-made from the example compounds of the present invention; Positive control compound RBN2397 purchased from Shanghai BioChemPartner Biotechnology Co., Ltd. SD male rats were obtained from the Laboratory Animal Management Department of Shanghai Family Planning Research Institute. Animal production license number (SCXK (Shanghai) 2018-0006).
Preparation of 0.5% methyl cellulose: 5 g of methyl cellulose were weighed and dissolved in 1000 mL of purified water.
Preparation of oral formulation: A required amount of test compound was weighed and dissolved in 0.5% methyl cellulose solution to obtain a suspension or solution of 0.5 mg/mL or 1.0 mg/mL.
Preparation of intravenous injection formulation: A required amount of test compound was weighed, and dissolved in 0.5 mL of dimethyl sulfoxide to prepare a solution of 4 mg/mL. 0.25 mL of the above solution was added into 0.5 mL of polyethylene glycol 15 hydroxystearate (solutol) and 4.25 mL of physiological saline to obtain a solution of 0.2 mg/mL.
Administration: SD male rats were orally administered (PO) after fasting overnight, and fed 4 hours after administration.
Sample Collection: blood was collected through jugular vein or other suitable vein, and 0.2 mL of blood was collected at each time point. Samples were placed into tubes containing ethylenediamine tetraacetic acid dipotassium salt and kept on ice before centrifugation. Within 1 hour after blood collection, the blood samples were centrifuged at 2-8° C. and 6800 g for 6 minutes and stored at −80° C. The time point for blood collection was 0.083, 0.25, 0.5, 1, 2, 4, 8 and 24 hours after intravenous administration, and 0.25, 0.5, 1, 2, 4, 6, 8 and 24 hours after oral administration.
The intravenous dosage was 1 mg/kg, and the pharmacokinetic parameters for oral administration were standardized to a 1 mg/kg dose.

[2] = Metabolic stability in rat liver microsomes; format: in vitro ADME; details: pH 7.4, 1.00 μM compound, 0.5 mg/mL protein, read-out: intrinsic clearance, Clint
Description: (§1) 1. Experiment purpose: This study aims to determine the metabolic stability of selected compounds from the embodiments of the invention in liver microsomes of humans, dogs, monkeys, rats, and mice using the LC-MS/MS method.
(§2) Test compounds: The test drug is self-made from the example compounds of the present invention; Positive control compound RBN2397 purchased from Shanghai BioChemPartner Biotechnology Co., Ltd.
(§3) Liver microsomes obtained from Xenotech.
(§4) The incubation was carried out at 37° C. in a CO2 incubator. The reactions were terminated by adding 150 μL of cold acetonitrile at different time points (0, 5, 15, 30, and 45 minutes). The 96-well plate was shaken at 600 rpm for 10 minutes, followed by centrifugation at 6000 rpm for 15 minutes. The supernatant (80 μL) was mixed with 140 μL of pure water, and the remaining amount of the compound was determined using LC-MS/MS. The intrinsic clearance (Clint) was calculated using the formula Clint=k/liver microsomes protein concentration, where “k” is the linear regression slope of log compound remaining percentage against incubation time.

[3] = Metabolic stability in dog liver microsomes; format: in vitro ADME; details: pH 7.4, 1.00 μM compound, 0.5 mg/mL protein, read-out: intrinsic clearance, Clint
Description: as §1, §2, §3, §4

[4] = Metabolic stability in human liver microsomes; format: in vitro ADME; details: pH 7.4, 1.00 μM compound, 0.5 mg/mL protein, read-out: intrinsic clearance, Clint
Description: as §1, §2, §3, §4

[5] = Oral gavage, standardized to a 1 mg/kg dose

SMILES: C[C@H]1CC[C@@H](CCC(=O)N2CCN(c3ncc(C(F)(F)F)cn3)CC2)N1c1cc(C(F)(F)F)c(=O)[nH]n1 [Compound 39]
- IC50 (PARP1): 0.06 µM
- IC50 (PARP7): 0.008 µM

SMILES: O=C(CC[C@@H]1C[C@H](N2CCOCC2)CN1c1cc(C(F)(F)F)c(=O)[nH]n1)N1CCN(c2ncc(C(F)(F)F)cn2)CC1 [Compound 35]
- IC50 (PARP1): 0.047 µM
- IC50 (PARP7): 0.0043 µM

SMILES: O=C(CC[C@@H]1C[C@@H]2CCC[C@@H]2N1c1cc(C(F)(F)F)c(=O)[nH]n1)N1CCN(c2ncc(C(F)(F)F)cn2)CC1 [Compound 24]
- IC50 (PARP1): 0.0041 µM
- IC50 (PARP7): 0.0021 µM

SMILES: N[C@H]1C[C@@H](CCC(=O)N2CCN(c3ncc(C(F)(F)F)cn3)CC2)N(c2cc(C(F)(F)F)c(=O)[nH]n2)C1 [Compound 42]
- IC50 (PARP1): 0.006 µM
- IC50 (PARP7): 0.037 µM

SMILES: C[C@H]1CC(CCC(=O)N2CCN(c3ncc(C(F)(F)F)cn3)CC2)N(c2cc(C(F)(F)F)c(=O)[nH]n2)C1 (stereo partly shown) [Compound 30]
- IC50 (PARP1): 0.0076 µM
- IC50 (PARP7): 0.0051 µM

SMILES: CCO[C@H]1C[C@@H](CCC(=O)N2CCN(c3ncc(C(F)(F)F)cn3)CC2)N(c2cc(C(F)(F)F)c(=O)[nH]n2)C1 [Compound 36]
- IC50 (PARP1): 0.0144 µM
- IC50 (PARP7): 0.0038 µM

SMILES: O=C(COC[C@@H]1CCCN1c1cc(C(F)(F)F)c(=O)[nH]n1)N1CCN(c2ncc(C(F)(F)F)cn2)CC1 [Compound 1]
- F ([1]; Oral gavage): 21.97%
- AUC(0-inf) ([1]; Intravenous injection, 1 mg/kg): 360 ng·h/mL
- Cmax ([1]; Intravenous injection, 1 mg/kg): 720 ng/mL
- clearance ([1]; Intravenous injection, 1 mg/kg): 46.9 mL/min/kg
- half-life ([1]; Intravenous injection, 1 mg/kg): 34.8 min
- AUC(0-inf) [1, 5]: 89.2 ng·h/mL
- Cmax [1, 5]: 53.5 ng/mL
- IC50 (NCI-H1373 cells): 0.038 µM

SMILES: O=C(CC[C@H]1CCCN1c1cc(C(F)(F)F)c(=O)[nH]n1)N1CCN(c2ncc(C(F)(F)F)cn2)CC1 [Compound 18]
- IC50 (PARP1): 0.0025 µM
- IC50 (PARP7): 0.0022 µM

More lines, now with the values ahead:

- IC50 (NCI-H1373 cells): 0.0692 µM
SMILES: O=C(CC[C@@H]1C[C@@H](Oc2cc(F)cc(F)c2)CN1c1cc(C(F)(F)F)c(=O)[nH]n1)N1CCN(c2ncc(C(F)(F)F)cn2)CC1 [Compound 51]

- IC50 (NCI-H1373 cells): 0.0582 µM
SMILES: CO[C@@H]1C[C@@H](C(=O)N2CCN(c3ncc(C(F)(F)F)cn3)CC2)N(c2cc(C(F)(F)F)c(=O)[nH]n2)C1 [Compound 70]

- CLint scaled at 1 μM [2]: 137 mL/min/kg
- CLint scaled at 1 μM [3]: 31.6 mL/min/kg
- F ([1]; Oral gavage): 18.1%
- AUC(0-inf) ([1]; Intravenous injection, 1 mg/kg): 1380 ng·h/mL
- Cmax ([1]; Intravenous injection, 1 mg/kg): 1950 ng/mL
- clearance ([1]; Intravenous injection, 1 mg/kg): 12.2 mL/min/kg
- half-life ([1]; Intravenous injection, 1 mg/kg): 85.8 min
- AUC(0-inf) [1, 5]: 248 ng·h/mL
- Cmax [1, 5]: 30.4 ng/mL
- IC50 (NCI-H1373 cells): 0.01 µM
- CLint scaled at 1 μM [4]: 64.6 mL/min/kg
SMILES: O=C(CC[C@@H]1CCCN1c1cc(C(F)(F)F)c(=O)[nH]n1)N1CCN(c2ncc(C(F)(F)F)cn2)CC1 [Compound 6]

- CLint scaled at 1 μM [2]: 74.4 mL/min/kg
- CLint scaled at 1 μM [3]: 28.7 mL/min/kg
- F ([1]; Oral gavage): 15.53%
- AUC(0-inf) ([1]; Intravenous injection, 1 mg/kg): 523 ng·h/mL
- Cmax ([1]; Intravenous injection, 1 mg/kg): 734 ng/mL
- clearance ([1]; Intravenous injection, 1 mg/kg): 32 mL/min/kg
- half-life ([1]; Intravenous injection, 1 mg/kg): 49.2 min
- AUC(0-inf) [1, 5]: 94.4 ng·h/mL
- Cmax [1, 5]: 15 ng/mL
- IC50 (NCI-H1373 cells): 0.0124 µM
- CLint scaled at 1 μM [4]: 46.6 mL/min/kg
SMILES: O=C(CC[C@@H]1C[C@@H](F)CN1c1cc(C(F)(F)F)c(=O)[nH]n1)N1CCN(c2ncc(C(F)(F)F)cn2)CC1 [Compound 20]

- IC50 (PARP1): 12 µM
- IC50 (PARP7): 0.043 µM
SMILES: O=C([C@@H]1C[C@H](Oc2ccccc2F)CN1c1cc(C(F)(F)F)c(=O)[nH]n1)N1CCN(c2ncc(C(F)(F)F)cn2)CC1 [Compound 67]

- F ([1]; Oral gavage): 14.34%
- AUC(0-inf) ([1]; Intravenous injection, 1 mg/kg): 397 ng·h/mL
- Cmax ([1]; Intravenous injection, 1 mg/kg): 477 ng/mL
- clearance ([1]; Intravenous injection, 1 mg/kg): 42.2 mL/min/kg
- half-life ([1]; Intravenous injection, 1 mg/kg): 40.8 min
- AUC(0-inf) [1, 5]: 60.7 ng·h/mL
- Cmax [1, 5]: 15.1 ng/mL
SMILES: O=C(CC[C@@H]1C[C@H](Oc2ccccc2)CN1c1cc(C(F)(F)F)c(=O)[nH]n1)N1CCN(c2ncc(C(F)(F)F)cn2)CC1 [Compound 19]

From US20240294509A1, “PYRIDAZINONE COMPOUND AS PARP7 INHIBITOR” (Euregen Biopharma Co., Ltd., priority 2021, published 2024)
